This is an account of results in US8017585B2, “CXCR4 antagonist and use thereof” (priority 2002, dated 2011).

Numbered stars: 1 amine (or outer) side, 2 acyl side, 3 side chain; on linkers, the order of the positions; unused ones are H or OH. Bridge positions count the residues as written; N and C are the ends. Square brackets hold non-standard residues; d marks the D form. Peptide text beside a SMILES is read from it. * marks the point of attachment. X4 = CN(C)C(=N[C@@H](CCCNC(=N)N)C(=O)*)N(C)C; Pentanoyl(5-guanidino) = NC(N)=NCCCCC(=O)*; 2Nal = N[C@@H](Cc1ccc2ccccc2c1)C(=O)O; X1 = N=C(N)NCCC[C@H](NC(=N)N)C(=O)*; Glutaryl = O=C(CCCC(=O)[*:2])[*:1]; Benzoyl(4-F) = O=C(c1ccc(F)cc1)*; dCit = NC(=O)NCCC[C@@H](N)C(=O)O; Cit = NC(=O)NCCC[C@H](N)C(=O)O; Suc = O=C(CCC(=O)[*:2])[*:1]; Ahx = NCCCCCC(=O)O

T1 sequence (P61073 whole entry): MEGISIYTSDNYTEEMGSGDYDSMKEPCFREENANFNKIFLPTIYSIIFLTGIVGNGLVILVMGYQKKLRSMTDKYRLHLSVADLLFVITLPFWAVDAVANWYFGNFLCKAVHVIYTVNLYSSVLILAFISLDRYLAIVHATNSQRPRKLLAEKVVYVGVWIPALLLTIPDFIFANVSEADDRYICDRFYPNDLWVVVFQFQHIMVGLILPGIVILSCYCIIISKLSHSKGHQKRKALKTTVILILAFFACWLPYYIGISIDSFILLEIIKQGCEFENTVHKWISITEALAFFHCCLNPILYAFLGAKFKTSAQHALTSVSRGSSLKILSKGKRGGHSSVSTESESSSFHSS

The assay has as its target T1, CXCR4 receptor (Homo sapiens, UniProt P61073).
T1 construct: 50 μL of Jurkat human T-cell leukemia cells (6×10^6 cells/mL) suspended in buffer; endogenous in cells; host or cells: Jurkat human T-cell leukemia cells
In words: Inhibition of 125I-CXCL12 binding to CXCR4 receptor on Jurkat cells. The conditions noted are these: Table 1, 125I-CXCL12, 1 hour at room temperature, compounds as acetate salt, read-out: IC50 (nM), inhibitory activity against CXCL12 binding to CXCR4 receptor.
Experimental: After reaction, suction was made toward the reaction solution by 96 well GF/C filter plate, and each well's radioactivity was measured by top count. As the radioactivity index of 100% when the test compound was not added, and 0% when 100 nM of non-radioisotope-labeled CXCL12 was added, the inhibitory activity of each test compound was measured.
Broadly, the IC50 is the point on the concentration scale where inhibition reaches its midpoint. On to `N=C(N)NCCC[C@H](NC(=O)[C@@H]1CSSC[C@H](NC(=O)[C@H](Cc2ccc3ccccc3c2)NC(=O)[C@H](CCCNC(=N)N)NC(=O)CCCC(=O)O)C(=O)N[C@@H](Cc2ccc(O)cc2)C(=O)N[C@@H](CCCNC(N)=O)C(=O)N[C@@H](CCCCN)C(=O)N[C@H](CCC(=O)O)C(=O)N2CCC[C@H]2C(=O)N[C@@H](Cc2ccc(O)cc2)C(=O)N[C@@H](CCCNC(=N)N)C(=O)N[C@@H](CCCNC(N)=O)C(=O)N1)C(N)=O` [TF11, glutaryl-Arg-Nal-Cys-Tyr-Cit-Lys-DGlu-Pro-Tyr-Arg-Cit-Cys-Arg-NH2] (Glutaryl-R[2Nal]CY[Cit]K[dE]PYR[Cit]CR-NH2; disulfide 3-12), for which the IC50 was 630 nM.

In the case of `CN(C)C(=N[C@@H](CCCNC(=N)N)C(=O)N[C@@H](CCCNC(=N)N)C(=O)N[C@@H](Cc1ccc2ccccc2c1)C(=O)N[C@H]1CSSC[C@@H](C(=O)N[C@@H](CCCNC(=N)N)C(N)=O)NC(=O)[C@H](CCCNC(N)=O)NC(=O)[C@H](CCCNC(=N)N)NC(=O)[C@H](Cc2ccc(O)cc2)NC(=O)[C@@H]2CCCN2C(=O)[C@@H](CCC(=O)O)NC(=O)[C@H](CCCCN)NC(=O)[C@H](CCCNC(N)=O)NC(=O)[C@H](Cc2ccc(O)cc2)NC1=O)N(C)C` [TF3, TMguanyl-Arg-Arg-Nal-Cys-Tyr-Cit-Lys-DGlu-Pro-Tyr-Arg-Cit-Cys-Arg-NH2] (X4-R[2Nal]CY[Cit]K[dE]PYR[Cit]CR-NH2; disulfide 3-12), the IC50 turned out to be 9.6 nM.

Take `N=C(N)NCCC[C@H](NC(=O)[C@@H]1CSSC[C@H](NC(=O)[C@H](Cc2ccc3ccccc3c2)NC(=O)[C@H](CCCNC(=N)N)NC(=O)CCC(=O)O)C(=O)N[C@@H](Cc2ccc(O)cc2)C(=O)N[C@@H](CCCNC(N)=O)C(=O)N[C@@H](CCCCN)C(=O)N[C@H](CCC(=O)O)C(=O)N2CCC[C@H]2C(=O)N[C@@H](Cc2ccc(O)cc2)C(=O)N[C@@H](CCCNC(=N)N)C(=O)N[C@@H](CCCNC(N)=O)C(=O)N1)C(N)=O` [TF10, succinyl-Arg-Nal-Cys-Tyr-Cit-Lys-DGlu-Pro-Tyr-Arg-Cit-Cys-Arg-NH2] (Suc-R[2Nal]CY[Cit]K[dE]PYR[Cit]CR-NH2; disulfide 3-12): the IC50 worked out at 48 nM. Next, `N=C(N)NCCC[C@H](NC(=O)[C@@H]1CSSC[C@H](NC(=O)[C@H](Cc2ccc3ccccc3c2)NC(=O)[C@H](CCCNC(=N)N)NC(=O)[C@H](CCCNC(=N)N)NC(=O)c2ccc(F)cc2)C(=O)N[C@@H](Cc2ccc(O)cc2)C(=O)N[C@@H](CCCNC(N)=O)C(=O)N[C@@H](CCCCN)C(=O)N[C@H](CCC(=O)O)C(=O)N2CCC[C@H]2C(=O)N[C@@H](Cc2ccc(O)cc2)C(=O)N[C@@H](CCCNC(=N)N)C(=O)N[C@@H](CCCNC(N)=O)C(=O)N1)C(N)=O` [TF5, 4F-benzoyl-Arg-Arg-Nal-Cys-Tyr-Cit-Lys-DGlu-Pro-Tyr-Arg-Cit-Cys-Arg-NH2] ({Benzoyl(4-F)}-RR[2Nal]CY[Cit]K[dE]PYR[Cit]CR-NH2; disulfide 4-13): 2.8 nM. Next, `N=C(N)NCCCCC(=O)N[C@@H](CCCNC(=N)N)C(=O)N[C@@H](Cc1ccc2ccccc2c1)C(=O)N[C@H]1CSSC[C@@H](C(=O)N[C@@H](CCCNC(=N)N)C(N)=O)NC(=O)[C@H](CCCNC(N)=O)NC(=O)[C@H](CCCNC(=N)N)NC(=O)[C@H](Cc2ccc(O)cc2)NC(=O)[C@@H]2CCCN2C(=O)[C@@H](CCC(=O)O)NC(=O)[C@H](CCCCN)NC(=O)[C@H](CCCNC(N)=O)NC(=O)[C@H](Cc2ccc(O)cc2)NC1=O` [TF8, desamino-R-Arg-Nal-Cys-Tyr-Cit-Lys-DGlu-Pro-Tyr-Arg-Cit-Cys-Arg-NH2] ({Pentanoyl(5-guanidino)}-R[2Nal]CY[Cit]K[dE]PYR[Cit]CR-NH2; disulfide 3-12): 8.2 nM; `N=C(N)NCCC[C@H](NC(=O)[C@@H]1CSSC[C@H](NC(=O)[C@H](Cc2ccc3ccccc3c2)NC(=O)[C@H](CCCNC(=N)N)NC(=N)N)C(=O)N[C@@H](Cc2ccc(O)cc2)C(=O)N[C@@H](CCCNC(N)=O)C(=O)N[C@@H](CCCCN)C(=O)N[C@H](CCC(=O)O)C(=O)N2CCC[C@H]2C(=O)N[C@@H](Cc2ccc(O)cc2)C(=O)N[C@@H](CCCNC(=N)N)C(=O)N[C@@H](CCCNC(N)=O)C(=O)N1)C(N)=O` [TF9, guanyl-Arg-Nal-Cys-Tyr-Cit-Lys-DGlu-Pro-Tyr-Arg-Cit-Cys-Arg-NH2] (X1-[2Nal]CY[Cit]K[dE]PYR[Cit]CR-NH2; disulfide 2-11): 250 nM; `N=C(N)NCCC[C@H](NC(=O)[C@@H]1CSSC[C@H](NC(=O)[C@H](Cc2ccc3ccccc3c2)NC(=O)[C@H](CCCNC(=N)N)NC(=O)[C@H](CCCNC(=N)N)NC(=O)CCCCCN)C(=O)N[C@@H](Cc2ccc(O)cc2)C(=O)N[C@@H](CCCNC(N)=O)C(=O)N[C@@H](CCCCN)C(=O)N[C@H](CCCNC(N)=O)C(=O)N2CCC[C@H]2C(=O)N[C@@H](Cc2ccc(O)cc2)C(=O)N[C@@H](CCCNC(=N)N)C(=O)N[C@@H](CCCNC(N)=O)C(=O)N1)C(N)=O` [TF19, ACA-Arg-Arg-Nal-Cys-Tyr-Cit-Lys-DCit-Pro-Tyr-Arg-Cit-Cys-Arg-NH2] (H-[Ahx]RR[2Nal]CY[Cit]K[dCit]PYR[Cit]CR-NH2; disulfide 5-14): 4.5 nM. Next, `CN(C)C(=N[C@@H](CCCNC(=N)N)C(=O)N[C@@H](CCCNC(=N)N)C(=O)N[C@@H](Cc1ccc2ccccc2c1)C(=O)N[C@H]1CSSC[C@@H](C(=O)N[C@@H](CCCNC(=N)N)C(N)=O)NC(=O)[C@H](CCCNC(N)=O)NC(=O)[C@H](CCCNC(=N)N)NC(=O)[C@H](Cc2ccc(O)cc2)NC(=O)[C@@H]2CCCN2C(=O)[C@@H](CCCNC(N)=O)NC(=O)[C@H](CCCCN)NC(=O)[C@H](CCCNC(N)=O)NC(=O)[C@H](Cc2ccc(O)cc2)NC1=O)N(C)C` [TF18, TMguanyl-Arg-Arg-Nal-Cys-Tyr-Cit-Lys-DCit-Pro-Tyr-Arg-Cit-Cys-Arg-NH2] (X4-R[2Nal]CY[Cit]K[dCit]PYR[Cit]CR-NH2; disulfide 3-12): 8 nM; `CC(=O)N[C@@H](CCCNC(=N)N)C(=O)N[C@@H](CCCNC(=N)N)C(=O)N[C@@H](Cc1ccc2ccccc2c1)C(=O)N[C@H]1CSSC[C@@H](C(=O)N[C@@H](CCCNC(=N)N)C(N)=O)NC(=O)[C@H](CCCNC(N)=O)NC(=O)[C@H](CCCNC(=N)N)NC(=O)[C@H](Cc2ccc(O)cc2)NC(=O)[C@@H]2CCCN2C(=O)[C@@H](CCC(=O)O)NC(=O)[C@H](CCCCN)NC(=O)[C@H](CCCNC(N)=O)NC(=O)[C@H](Cc2ccc(O)cc2)NC1=O` [TF1, Ac-Arg-Arg-Nal-Cys-Tyr-Cit-Lys-DGlu-Pro-Tyr-Arg-Cit-Cys-Arg-NH2] (Ac-RR[2Nal]CY[Cit]K[dE]PYR[Cit]CR-NH2; disulfide 4-13): 11 nM. Turning to `N=C(N)NCCC[C@H](NC(=O)[C@@H]1CSSC[C@H](NC(=O)[C@H](Cc2ccc3ccccc3c2)NC(=O)[C@H](CCCNC(=N)N)NC(=O)[C@@H](N)CCCNC(=N)N)C(=O)N[C@@H](Cc2ccc(O)cc2)C(=O)N[C@H](CCC(=O)O)C(=O)N[C@@H](CCCCN)C(=O)N[C@H](CCCNC(N)=O)C(=O)N2CCC[C@H]2C(=O)N[C@@H](Cc2ccc(O)cc2)C(=O)N[C@@H](CCCNC(=N)N)C(=O)N[C@@H](CCCNC(N)=O)C(=O)N1)C(N)=O` [TE14012, H-Arg-Arg-Nal-Cys-Tyr-DGlu-Lys-DCit-Pro-Tyr-Arg-Cit-Cys-Arg-NH2] (H-RR[2Nal]CY[dE]K[dCit]PYR[Cit]CR-NH2; disulfide 4-13), the concentration for half-maximal inhibition (IC50) was 5.4 nM.
